From patent US20260109732A1, “LIPID AMINES” (ModernaTX, Inc., priority 2021, published 2026)
Structures can show the parent of a compound that is named as a salt.

Key:
[1] = Diameter and PDI from DLS measurements of mRNA nanoparticles with lipid amines; type: physicochemical
In short: (§1)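 DLS gave size and PDI, and Ribogreen gave encapsulation, for luciferase- or CFTR-mRNA nanoparticles (N:P 4.93). Particles came from IL1/DSPC/cholesterol/PEG-DMG-2K mixed at pH 4, mRNA-loaded, neutralized with TRIS pH 8.12, and then treated with lipid amine SA50 in pH 7.5 buffer.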

[2] = Encapsulation of mRNA nanoparticles with lipid amines using Ribogreen assay; type: physicochemical
In short: as §1

HeLa cells [3] = assay: Luciferase Protein Expression Assay in HeLa Cells; type: cell-based, Human; details: LNPs encapsulating Luciferase mRNA, 25 ng per well, N=4 wells; 5 h serum-free then 24 h; ONE-Glo
In short: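 Luminescence output, average RLU across N=4 wells, was measured with ONE-Glo after cell lysis. Before that, HeLa cells were exposed to 25 ng/well luciferase-mRNA nanoparticles (PBS control) for 5 h serum-free, then cultured overnight (24 h) in complete MEM.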

HeLa cells [4] = assay: CFTR Protein Expression Assay in HeLa Cells; type: cell-based, Human; details: LNPs encapsulating CFTR mRNA, N=4 wells; 5 h serum-free then 24 h; immunofluorescence vs PBS control
In short: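 Readout is fold-change in per-cell CFTR immunofluorescence intensity (488 nm, confocal imaging) relative to PBS-treated cells, from 4 replicate wells. LNPs encapsulating CFTR mRNA were applied serum-free for 5 h, followed by 24 h in complete medium before PFA fixation.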

[5] = CFTR mRNA nanoparticle with lipid amine
[6] = Luciferase mRNA nanoparticle modified with lipid amine

## CC(C)CCC[C@@H](C)[C@H]1CC[C@H]2[C@@H]3CC=C4C[C@@H](OC(=O)N(CCCN)CCCCCCN)CC[C@]4(C)[C@H]3CC[C@]12C [SA83, (3S,8S,9S,10R,13R,14S,17R)-10,13-Dimethyl-17-((R)-6-methylheptan-2-yl)-2,3,4,7,8,9,10,11,12,13,14,15,16,17-tetradecahydro-1H-cyclopenta[a]phenanthren-3-yl (6-aminohexyl)(3-aminopropyl)carbamate dihydrochloride]
[1]; [5]
  Diameter (nm): 82.3 nm
  PDI: 0.15
[1]; [6]
  Diameter (nm): 75 nm
  PDI: 0.14
[2]; [5]
  % Encapsulation (Ribogreen): 99.8%
[2]; [6]
  % Encapsulation (Ribogreen): 99.3%
HeLa cells [3]
  Average Relative Light Units ± Standard Deviation: 35394.8 ± 5033.2 Relative Light Units
HeLa cells [4]
  Average fold-change in CFTR signal intensity per cell compared to buffer control ± standard deviation: 4.8 ± 0.3 fold-change

## CC[C@H](CC[C@@H](C)[C@H]1CC[C@H]2[C@@H]3CC=C4C[C@@H](OC(=O)N(CCCN)CCCCCCN)CC[C@]4(C)[C@H]3CC[C@]12C)C(C)C [SA84, (3S,8S,9S,10R,13R,14S,17R)-17-((2R,5R)-5-Ethyl-6-methylheptan-2-yl)-10,13-dimethyl-2,3,4,7,8,9,10,11,12,13,14,15,16,17-tetradecahydro-1H-cyclopenta[a]phenanthren-3-yl (6-aminohexyl)(3-aminopropyl)carbamate dihydrochloride]
[1]; [5]
  Diameter (nm): 82 nm
  PDI: 0.13
[1]; [6]
  Diameter (nm): 74 nm
  PDI: 0.16
[2]; [5]
  % Encapsulation (Ribogreen): 99.5%
[2]; [6]
  % Encapsulation (Ribogreen): 99.9%
HeLa cells [3]
  Average Relative Light Units ± Standard Deviation: 29639.9 ± 7554 Relative Light Units
HeLa cells [4]
  Average fold-change in CFTR signal intensity per cell compared to buffer control ± standard deviation: 5.0 ± 0.2 fold-change

## CC(C)CCC[C@@H](C)[C@H]1CC[C@H]2[C@@H]3CC=C4C[C@@H](OC(=O)N(CCCCNCC(F)CN)CC(F)CN)CC[C@]4(C)[C@H]3CC[C@]12C (stereo partly drawn) [SA87, (3S,8S,9S,10R,13R,14S,17R)-10,13-dimethyl-17-((R)-6-methylheptan-2-yl)-2,3,4,7,8,9,10,11,12,13,14,15,16,17-tetradecahydro-1H-cyclopenta[a]phenanthren-3-yl (3-amino-2-fluoropropyl)(4-((3-amino-2-fluoropropyl)amino)butyl)carbamate trihydrochloride]
[1]; [5]
  Diameter (nm): 81.2 nm
  PDI: 0.1
[1]; [6]
  Diameter (nm): 75 nm
  PDI: 0.18
[2]; [5]
  % Encapsulation (Ribogreen): 99.5%
[2]; [6]
  % Encapsulation (Ribogreen): 98.2%
HeLa cells [3]
  Average Relative Light Units ± Standard Deviation: 13346.1 ± 2590.8 Relative Light Units
HeLa cells [4]
  Average fold-change in CFTR signal intensity per cell compared to buffer control ± standard deviation: 3.2 ± 0.1 fold-change

## CC(C)CCC[C@@H](C)[C@H]1CC[C@H]2[C@@H]3CC=C4C[C@@H](OC(=O)N(CCCCNCC(O)CN)CC(O)CN)CC[C@]4(C)[C@H]3CC[C@]12C (stereo partly drawn) [SA88, (3S,8S,9S,10R,13R,14S,17R)-10,13-dimethyl-17-((R)-6-methylheptan-2-yl)-2,3,4,7,8,9,10,11,12,13,14,15,16,17-tetradecahydro-1H-cyclopenta[a]phenanthren-3-yl (3-amino-2-hydroxypropyl)(4-((3-amino-2-hydroxypropyl)amino)butyl)carbamate trihydrochloride]
[1]; [5]
  Diameter (nm): 89.4 nm
  PDI: 0.19
[1]; [6]
  Diameter (nm): 75 nm
  PDI: 0.13
[2]; [5]
  % Encapsulation (Ribogreen): 99.1%
[2]; [6]
  % Encapsulation (Ribogreen): 99.8%
HeLa cells [3]
  Average Relative Light Units ± Standard Deviation: 17105.3 ± 7097.3 Relative Light Units
HeLa cells [4]
  Average fold-change in CFTR signal intensity per cell compared to buffer control ± standard deviation: 4.5 ± 0.2 fold-change

## CC(C)CCC[C@@H](C)[C@H]1CC[C@H]2[C@@H]3CC=C4C[C@@H](OC(=O)CCCCC(=O)N(CCCN)CCCCNCCCN)CC[C@]4(C)[C@H]3CC[C@]12C [SA89, (3S,8S,9S,10R,13R,14S,17R)-10,13-dimethyl-17-((R)-6-methylheptan-2-yl)-2,3,4,7,8,9,10,11,12,13,14,15,16,17-tetradecahydro-1H-cyclopenta[a]phenanthren-3-yl 6-((3-aminopropyl)(4-((3-aminopropyl)amino)butyl)amino)-6-oxohexanoate trihydrochloride]
[1]; [5]
  Diameter (nm): 86.5 nm
  PDI: 0.15
[1]; [6]
  Diameter (nm): 77 nm
  PDI: 0.16
[2]; [5]
  % Encapsulation (Ribogreen): 98.6%
[2]; [6]
  % Encapsulation (Ribogreen): 99.7%
HeLa cells [3]
  Average Relative Light Units ± Standard Deviation: 8209.2 ± 4138.5 Relative Light Units
HeLa cells [4]
  Average fold-change in CFTR signal intensity per cell compared to buffer control ± standard deviation: 3.7 ± 0.4 fold-change

## CC[C@H](CC[C@@H](C)[C@H]1CC[C@H]2[C@@H]3CC=C4C[C@@H](OC(=O)CCCCC(=O)N(CCCN)CCCCNCCCN)CC[C@]4(C)[C@H]3CC[C@]12C)C(C)C [SA90, (3S,8S,9S,10R,13R,14S,17R)-17-((2R,5R)-5-ethyl-6-methylheptan-2-yl)-10,13-dimethyl-2,3,4,7,8,9,10,11,12,13,14,15,16,17-tetradecahydro-1H-cyclopenta[a]phenanthren-3-yl 6-((3-aminopropyl)(4-((3-aminopropyl)amino)butyl)amino)-6-oxohexanoate trihydrochloride]
[1]; [5]
  Diameter (nm): 84.6 nm
  PDI: 0.14
[1]; [6]
  Diameter (nm): 76 nm
  PDI: 0.19
[2]; [5]
  % Encapsulation (Ribogreen): 98.1%
[2]; [6]
  % Encapsulation (Ribogreen): 99.6%
HeLa cells [3]
  Average Relative Light Units ± Standard Deviation: 9337.4 ± 3055.2 Relative Light Units
HeLa cells [4]
  Average fold-change in CFTR signal intensity per cell compared to buffer control ± standard deviation: 4.2 ± 0.4 fold-change

## CC(C)CCC[C@@H](C)[C@H]1CC[C@H]2[C@@H]3CC=C4C[C@@H](OC(=O)N(CCCN)CCCCCCCCCCN)CC[C@]4(C)[C@H]3CC[C@]12C [SA95, (3S,8S,9S,10R,13R,14S,17R)-10,13-Dimethyl-17-((R)-6-methylheptan-2-yl)-2,3,4,7,8,9,10,11,12,13,14,15,16,17-tetradecahydro-1H-cyclopenta[a]phenanthren-3-yl (10-aminodecyl)(3-aminopropyl)carbamate dihydrochloride]
[1]; [5]
  Diameter (nm): 83.6 nm
  PDI: 0.14
[1]; [6]
  Diameter (nm): 75 nm
  PDI: 0.20
[2]; [5]
  % Encapsulation (Ribogreen): 99.3%
[2]; [6]
  % Encapsulation (Ribogreen): 99.7%
HeLa cells [3]
  Average Relative Light Units ± Standard Deviation: 22952.2 ± 5937.7 Relative Light Units
HeLa cells [4]
  Average fold-change in CFTR signal intensity per cell compared to buffer control ± standard deviation: 4.2 ± 0.8 fold-change

## CC[C@H](CC[C@@H](C)[C@H]1CC[C@H]2[C@@H]3CC=C4C[C@@H](OC(=O)N(CCCN)CCCCCCCCCCN)CC[C@]4(C)[C@H]3CC[C@]12C)C(C)C [SA96, (3S,8S,9S,10R,13R,14S,17R)-17-((2R,5R)-5-Ethyl-6-methylheptan-2-yl)-10,13-dimethyl-2,3,4,7,8,9,10,11,12,13,14,15,16,17-tetradecahydro-1H-cyclopenta[a]phenanthren-3-yl (10-aminodecyl)(3-aminopropyl)carbamate dihydrochloride]
[1]; [5]
  Diameter (nm): 82.3 nm
  PDI: 0.12
[1]; [6]
  Diameter (nm): 71 nm
  PDI: 0.15
[2]; [5]
  % Encapsulation (Ribogreen): 98.9%
[2]; [6]
  % Encapsulation (Ribogreen): 99.6%
HeLa cells [3]
  Average Relative Light Units ± Standard Deviation: 17172.8 ± 2176 Relative Light Units
HeLa cells [4]
  Average fold-change in CFTR signal intensity per cell compared to buffer control ± standard deviation: 5.2 ± 0.7 fold-change

## CC(C)CCC[C@@H](C)[C@H]1CC[C@H]2[C@@H]3CC=C4C[C@@H](SSCCC(=O)N(CCCN)CCCCCCCCN)CC[C@]4(C)[C@H]3CC[C@]12C [SA97, N-(8-Aminooctyl)-N-(3-aminopropyl)-3-(((3S,8S,9S,10R,13R,14S,17R)-10,13-dimethyl-17-((R)-6-methylheptan-2-yl)-2,3,4,7,8,9,10,11,12,13,14,15,16,17-tetradecahydro-1H-cyclopenta[a]phenanthren-3-yl)disulfaneyl)propanamide dihydrochloride]
[1]; [5]
  Diameter (nm): 83.2 nm
  PDI: 0.12
[1]; [6]
  Diameter (nm): 72 nm
  PDI: 0.16
[2]; [5]
  % Encapsulation (Ribogreen): 98.4%
[2]; [6]
  % Encapsulation (Ribogreen): 98.8%
HeLa cells [3]
  Average Relative Light Units ± Standard Deviation: 13144.4 ± 4350.5 Relative Light Units
HeLa cells [4]
  Average fold-change in CFTR signal intensity per cell compared to buffer control ± standard deviation: 5.3 ± 1.0 fold-change

## CC(C)CCC[C@@H](C)[C@H]1CC[C@H]2[C@@H]3CC=C4C[C@@H](OC(=O)CSSCC(=O)N(CCCN)CCCCNCCCN)CC[C@]4(C)[C@H]3CC[C@]12C [SA98, (3S,8S,9S,10R,13R,14S,17R)-10,13-dimethyl-17-((R)-6-methylheptan-2-yl)-2,3,4,7,8,9,10,11,12,13,14,15,16,17-tetradecahydro-1H-cyclopenta[a]phenanthren-3-yl 2-((2-((3-aminopropyl)(4-((3-aminopropyl)amino)butyl)amino)-2-oxoethyl)disulfaneyl)acetate trihydrochloride]
[1]; [5]
  Diameter (nm): 82.8 nm
  PDI: 0.14
[1]; [6]
  Diameter (nm): 70 nm
  PDI: 0.15
[2]; [5]
  % Encapsulation (Ribogreen): 93%
[2]; [6]
  % Encapsulation (Ribogreen): 97.0%
HeLa cells [3]
  Average Relative Light Units ± Standard Deviation: 80.7 ± 36.7 Relative Light Units
HeLa cells [4]
  Average fold-change in CFTR signal intensity per cell compared to buffer control ± standard deviation: 1.0 ± 0 fold-change
